Assay results published in patent publication US20070155663A1, “Use of chemokine receptor agonists for stem cell transplantation” (priority 2003, published 2007).

Tested on: FDCP-Mix cells
Assay: in vitro chemotactic assay of FDCP-Mix cells in 96-transwell chambers
Type: cell-based
Details: migration for 14 h
Description: Figure: FDCP-Mix cells were subjected to in vitro chemotactic assays. Chemotaxis was assessed in 96-transwell chambers (Neuroprobe, Cabin John, MD) by using polyvinylpyrrolidone-free polycarbonate membranes (Nucleopore, Neuroprobe) with 5-μm pores. Four hundred microliters of IMDM medium was added to the bottom of the well, and was supplemented with varying concentrations of SDF-1α or MIP-3α (R&D Systems). 100 μl of IMDM medium containing 50.000 FDCP-Mix cells were added to the upper wells of the chemotaxis chamber. Additionally 100 μl of medium either with no supplement or supplemented with MIP-3α was added to the upper well. […] Simultaneously FDCP-Mix progenitor cells were coincubated with MIP-3α in concentrations of 10 to 1000 ng/ml medium.

MIP-3α: Macrophage Inflammatory Protein - 3α, CCR6 ligand (R&D Systems)
Chemotactic migration of FDCP-Mix progenitor cells (MIP-3a in the bottom well, 10 to 1000 ng/ml medium): does not induce chemotactic migration
Sensitivity of FDCP-Mix cells to migrate to SDF-1α (SDF-1a 10 ng/ml in bottom well, cells coincubated with agonist (MIP-3α 10 to 1000 ng/ml medium)): does increase the sensitivity
